In patent US20250214991A1 (Oncopia Therapeutics, Inc. d/b/a/ SK Life Science Labs, priority 2022, published 2025):
Read-outs that look alike come from different tables or passages of the source.

Experiments:
Assay type in all cases: cell-based
[1] = molecular target: T1, IKZF2 (Homo sapiens (Human), UniProt Q96SW2+Q9UKS7); assay: In vitro IKZF2 HiBit Assay (HEK293T Flp-in-HiBiT cells)
Method in brief: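 HEK293T Flp-in cells carrying an endogenous N-terminal HiBiT tag on IKZF2 were exposed to compound for 6 h at 0.1% DMSO. The dilution series was 11 doses at 3-fold, diluted from 1 mM. Nano-Glo HiBiT lytic luminescence, normalized to DMSO, gave DC50 for 50% degradation and Dmax across the concentration range, both reported in letter bins.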

[2] = molecular target: IKZF1 (Homo sapiens (Human), UniProt Q13422+Q96SW2); assay: In vitro IKZF1 HiBit Assay (HEK293T Flp-in-HiBiT-IKZF1 stable cell line)
Method in brief: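 HEK293T Flp-in cells carrying N-terminal HiBiT-tagged IKZF1 were exposed to compound (0.1% DMSO) for 6 h at 3000 cells/well. HiBiT luminescence was read after lytic LgBiT detection. DC50 and Dmax were taken from DMSO-normalized dose-response curves.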

[3] = molecular target: T1, IKZF2; assay: In vitro IKZF2 FACS Assay in Jurkat cells; conditions: 24 hrs; for DC50: half maximal degradation concentration; for Dmax: maximal degradation percentage
Procedure: In vitro IKZF2 FACS Assay
DC50, A: <1 nM; B: 1-10 nM; C: 10-100 nM; D: 100-1000 nM; E: >1000 nM. Dmax, A: >80%; B: 60-80%; C: 40-60%; D: 20-40%; E: <20%.

[4] = HEK293T Flp-in-HiBiT cells, 6 hrs incubation; read-out: IKZF2 HiBit DC50
[5] = HEK-293T; HEK293T Flp-in-HiBiT cells, 6 hrs incubation; read-out: IKZF2 HiBit Dmax (%)
[6] = HEK293T Flp-in-HiBiT-IKZF1 stable cell line, 6 hrs incubation; read-out: IKZF1 HiBit DC50
[7] = HEK-293T; HEK293T Flp-in-HiBiT-IKZF1 stable cell line, 6 hrs incubation; read-out: IKZF1 HiBit Dmax (%)

Chain of IKZF1 (Q13422 whole entry): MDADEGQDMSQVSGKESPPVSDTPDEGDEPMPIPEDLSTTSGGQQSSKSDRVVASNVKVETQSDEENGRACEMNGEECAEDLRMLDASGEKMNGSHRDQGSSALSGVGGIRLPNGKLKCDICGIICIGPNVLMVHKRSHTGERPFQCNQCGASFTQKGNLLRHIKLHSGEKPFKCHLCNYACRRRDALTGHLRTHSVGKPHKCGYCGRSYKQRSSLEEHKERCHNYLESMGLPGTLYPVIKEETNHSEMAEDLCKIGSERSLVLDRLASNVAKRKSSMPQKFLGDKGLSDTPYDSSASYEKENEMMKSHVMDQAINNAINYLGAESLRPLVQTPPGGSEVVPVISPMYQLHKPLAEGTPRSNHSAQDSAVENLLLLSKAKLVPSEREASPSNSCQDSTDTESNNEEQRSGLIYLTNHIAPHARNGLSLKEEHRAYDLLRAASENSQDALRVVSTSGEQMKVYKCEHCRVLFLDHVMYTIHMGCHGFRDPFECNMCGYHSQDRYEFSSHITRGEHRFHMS
Chain of IKZF1 (Q96SW2 whole entry): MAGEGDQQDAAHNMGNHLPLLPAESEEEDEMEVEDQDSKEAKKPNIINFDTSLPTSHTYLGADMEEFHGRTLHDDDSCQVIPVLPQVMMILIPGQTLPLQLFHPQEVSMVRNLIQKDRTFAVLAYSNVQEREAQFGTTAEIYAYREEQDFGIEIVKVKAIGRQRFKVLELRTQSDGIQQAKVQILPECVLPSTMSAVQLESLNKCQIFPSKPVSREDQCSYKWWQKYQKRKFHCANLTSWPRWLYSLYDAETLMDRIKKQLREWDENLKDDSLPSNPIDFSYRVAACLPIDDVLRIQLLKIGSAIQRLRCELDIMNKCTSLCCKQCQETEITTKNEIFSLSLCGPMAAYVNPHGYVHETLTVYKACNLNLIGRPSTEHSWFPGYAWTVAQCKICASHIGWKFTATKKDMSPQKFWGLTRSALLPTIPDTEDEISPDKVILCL
Chain of IKZF1 (Q16531 2-1140 partner): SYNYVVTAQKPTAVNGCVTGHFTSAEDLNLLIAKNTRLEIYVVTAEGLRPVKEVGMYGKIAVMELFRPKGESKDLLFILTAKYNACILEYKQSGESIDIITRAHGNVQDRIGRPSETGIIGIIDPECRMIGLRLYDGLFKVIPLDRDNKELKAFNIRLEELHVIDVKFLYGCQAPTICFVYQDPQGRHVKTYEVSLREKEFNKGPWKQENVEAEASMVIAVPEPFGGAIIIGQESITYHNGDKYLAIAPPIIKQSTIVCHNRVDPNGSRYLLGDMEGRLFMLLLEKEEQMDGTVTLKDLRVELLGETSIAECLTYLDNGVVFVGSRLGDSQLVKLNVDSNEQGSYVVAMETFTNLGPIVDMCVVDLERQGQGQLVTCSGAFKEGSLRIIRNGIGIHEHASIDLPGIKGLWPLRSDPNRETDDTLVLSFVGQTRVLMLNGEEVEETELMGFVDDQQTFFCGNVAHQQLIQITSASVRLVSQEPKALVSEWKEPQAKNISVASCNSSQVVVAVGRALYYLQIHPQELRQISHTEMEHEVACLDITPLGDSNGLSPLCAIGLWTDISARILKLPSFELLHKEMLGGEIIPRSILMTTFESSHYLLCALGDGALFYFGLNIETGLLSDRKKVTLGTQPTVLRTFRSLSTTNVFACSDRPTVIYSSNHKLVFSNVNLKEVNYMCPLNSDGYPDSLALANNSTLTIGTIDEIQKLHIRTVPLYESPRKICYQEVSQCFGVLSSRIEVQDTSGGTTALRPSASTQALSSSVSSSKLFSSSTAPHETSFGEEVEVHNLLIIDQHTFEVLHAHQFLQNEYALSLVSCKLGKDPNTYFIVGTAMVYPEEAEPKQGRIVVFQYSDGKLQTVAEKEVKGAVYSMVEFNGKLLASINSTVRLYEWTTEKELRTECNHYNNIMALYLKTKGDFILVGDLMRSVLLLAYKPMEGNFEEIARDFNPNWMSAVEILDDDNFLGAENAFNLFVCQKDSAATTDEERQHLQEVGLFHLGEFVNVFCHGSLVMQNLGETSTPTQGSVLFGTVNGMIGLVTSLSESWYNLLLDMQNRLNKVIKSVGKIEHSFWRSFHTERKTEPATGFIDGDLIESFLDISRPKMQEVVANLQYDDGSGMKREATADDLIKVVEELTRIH
T1 sequence (Q9UKS7 whole entry): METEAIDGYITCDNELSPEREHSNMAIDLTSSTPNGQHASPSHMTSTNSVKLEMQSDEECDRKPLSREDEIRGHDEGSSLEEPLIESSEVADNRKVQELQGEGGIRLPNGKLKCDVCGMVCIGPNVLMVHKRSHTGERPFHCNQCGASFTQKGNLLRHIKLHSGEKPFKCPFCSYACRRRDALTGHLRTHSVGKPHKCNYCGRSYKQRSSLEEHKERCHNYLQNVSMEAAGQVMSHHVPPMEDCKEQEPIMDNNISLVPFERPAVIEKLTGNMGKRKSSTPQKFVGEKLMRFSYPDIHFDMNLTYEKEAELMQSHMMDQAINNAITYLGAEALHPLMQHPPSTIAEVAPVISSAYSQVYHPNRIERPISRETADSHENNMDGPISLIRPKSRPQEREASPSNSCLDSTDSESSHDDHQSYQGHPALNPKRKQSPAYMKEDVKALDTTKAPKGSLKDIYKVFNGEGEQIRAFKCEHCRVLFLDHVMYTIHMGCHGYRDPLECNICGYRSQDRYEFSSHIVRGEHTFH
T1 sequence (Q96SW2 whole entry): as the sequence (Q96SW2 whole entry) above
T1 sequence (Q16531 2-1140 partner): as the sequence (Q16531 2-1140 partner) above

CC(C)Nc1n[nH]c2c(CN3CCCC3)cc(-c3ccc4c(c3)C(C)N(C3CCC(=O)NC3=O)C4=O)nc12 (stereo not drawn) [Example 293, 3-(5-(3-(isopropylamino)-7-(pyrrolidin-1-ylmethyl)-1H-pyrazolo[4,3-b]pyridin-5-yl)-3-methyl-1-oxoisoindolin-2-vl) piperidine-2,6-dione]
DC50 [1, 4]: 1 to 10 nM | Dmax [1, 5]: > 80% | DC50 [2, 6]: > 10000 nM | Dmax [2, 7]: < 20% | DC50 [3]: 1 to 10 nM | Dmax [3]: > 80%

O=C1CCC(N2Cc3cc(-c4cc(CN5CCCC5)c5nccc(OC(F)F)c5n4)ccc3C2=O)C(=O)N1 (stereo not drawn) [Example 249, 3-(5-(8-(difluoromethoxy)-4-(pyrrolidin-1-ylmethyl)-1,5-naphthyridin-2-yl)-1-oxoisoindolin-2-yl) piperidine-2,6-dione]
DC50 [1, 4]: 1 to 10 nM | Dmax [1, 5]: > 80% | DC50 [2, 6]: > 10000 nM | Dmax [2, 7]: < 20% | DC50 [3]: 1 to 10 nM | Dmax [3]: > 80%

CC1(C)CCCN1Cc1cc(-c2ccc3c(c2)CN(C2CCC(=O)NC2=O)C3=O)nc2c1ccn2C1COC1 (stereo not drawn) [Example 254, 3-(5-(4-((2,2-dimethylpyrrolidin-1-yl)methyl)-1-(oxetan-3-yl)-1H-pyrrolo[2,3-b]pyridin-6-yl)-1-oxoisoindolin-2-yl) piperidine-2,6-dione]
Dmax ([1]; HEK-293T, read-out: IKZF2 HiBit Dmax (%)): 60 to 80% | DC50 ([1]; read-out: IKZF2 HiBit DC50; HEK293T Flp-in-HiBiT cells, 6 hrs incubation): 1 to 10 nM | Dmax ([2]; HEK-293T, read-out: IKZF1 HiBit Dmax (%)): < 20% | DC50 ([2]; read-out: IKZF1 HiBit DC50; HEK293T Flp-in-HiBiT-IKZF1 stable cell line, 6 hrs incubation): > 10000 nM | DC50 [3]: 10 to 100 nM | Dmax [3]: 60 to 80%

O=C1CCC(N2Cc3c(ccc(-c4cc(CN5CC6COCC6C5)c5ccn(C6CS(=O)(=O)C6)c5n4)c3F)C2=O)C(=O)N1 (stereo not drawn) [Example 269, 3-(5-(1-(1,1-dioxidothietan-3-yl)-4-((tetrahydro-1H-furo[3,4-c]pyrrol-5 (3H)-yl)methyl)-1H-pyrrolo[2,3-b]pyridin-6-yl)-4-fluoro-1-oxoisoindolin-2-yl) piperidine-2,6-dione]
DC50 [1, 4]: 1 to 10 nM | Dmax [1, 5]: > 80% | DC50 [2, 6]: 10 to 100 nM | Dmax [2, 7]: 20 to 40% | DC50 [3]: 1 to 10 nM | Dmax [3]: > 80%

Nc1[nH]nc2c(CN3CCCC3)cc(-c3ccc4c(c3F)CN(C3CCC(=O)NC3=O)C4=O)nc12 (stereo not drawn) [Example 318, 3-(5-(3-amino-7-(pyrrolidin-1-ylmethyl)-2H-pyrazolo[4,3-b]pyridin-5-yl)-4-fluoro-1-oxoisoindolin-2-yl) piperidine-2,6-dione]
DC50 [1, 4]: 1 to 10 nM | Dmax [1, 5]: > 80% | DC50 [2, 6]: 10 to 100 nM | Dmax [2, 7]: 60 to 80% | DC50 [3]: 1 to 10 nM | Dmax [3]: > 80%

O=C1CCC(N2Cc3cc(-c4nc(CN5CCCC5)c5ccn(C6CS(=O)(=O)C6)c5n4)ccc3C2=O)C(=O)N1 (stereo not drawn) [Example 220, 3-(5-(7-(1,1-dioxidothietan-3-yl)-4-(pyrrolidin-1-ylmethyl)-7H-pyrrolo[2,3-d]pyrimidin-2-yl)-1-oxoisoindolin-2-yl) piperidine-2,6-dione]
DC50 [1, 4]: 10 to 100 nM | Dmax [1, 5]: 60 to 80% | DC50 [2, 6]: > 10000 nM | Dmax [2, 7]: < 20% | DC50 [3]: 10 to 100 nM | Dmax [3]: 40 to 60%

CCNc1n[nH]c2c(CN3CCCC3)cc(-c3ccc4c(c3F)CN(C3CCC(=O)NC3=O)C4=O)nc12 (stereo not drawn) [Example 291, 3-(5-(3-(ethylamino)-7-(pyrrolidin-1-ylmethyl)-1H-pyrazolo[4,3-b]pyridin-5-yl)-4-fluoro-1-oxoisoindolin-2-yl) piperidine-2,6-dione]
DC50 [1, 4]: < 1 nM | Dmax [1, 5]: > 80% | DC50 [2, 6]: 10 to 100 nM | Dmax [2, 7]: 40 to 60% | DC50 [3]: < 1 nM | Dmax [3]: > 80%

O=C1CCC(N2Cc3cc(-c4nc(CN5CCCC5)c5cc[nH]c5n4)ccc3C2=O)C(=O)N1 (stereo not drawn) [Example 182, 3-(1-oxo-5-(4-(pyrrolidin-1-ylmethyl)-7H-pyrrolo[2,3-d]pyrimidin-2-yl)isoindolin-2-yl) piperidine-2,6-dione]
DC50 [1, 4]: 1 to 10 nM | Dmax [1, 5]: > 80% | DC50 [2, 6]: > 10000 nM | Dmax [2, 7]: < 20% | DC50 [3]: 10 to 100 nM | Dmax [3]: 60 to 80%
